In PubChem BioAssay AID2060606 (Molecular Pharmacology Branch, DTP, NCI, 2025):

Tested on: 922993-354-T-J3-PDC complex spheroids, viability, % test/control
Test: Anticancer human tumor 922993-354-T-J3-PDC patient-derived endometrial carcinoma cell line growth inhibition [CLK]
Details: for IC50: curve of first compound; for viability, T/C: stronger effect = lower value
Source text: A high-throughput screen of multi-cell type tumor spheroids was designed to identify active combinations of […] and targeted small molecules. Complex spheroids include a stromal component modeled by human endothelial cells (HUVEC) and fibroblasts modeled by human mesenchymal stem cells (MSCs). The concentration ranges selected for each drug and investigational agent were based upon clinically achievable concentrations if the clinical Cmax of the agent was known.
Compounds. The drugs and investigational agents: cirtuvivint (SM08502; NSC835563), CC-671 (NSC850746), vemurafenib (NSC761431), tapotoclax (NSC804041), sotorasib (NSC818433), adagrasib (NSC831453), MRTX-1133 (NSC836407), BAY2416964 (NSC825713), copanlisib (NSC816437), inavolisib (NSC800729), abemaciclib (NSC768073), osimertinib (NSC779217), entinostat (NSC756642), eltanexor (KPT-8602, NSC794443), venetoclax (NSC766270), ceralasertib (NSC777638), bortezomib (NSC756655), olaparib (NSC753686), talazoparib (NSC767125), alisertib (NSC759677), peposertib (NSC802822), gemcitabine (NSC613327), 5-fluorouracil (NSC19893), SN-38 (NSC673596), oxaliplatin (NSC266046), paclitaxel (NSC125973), and doxorubicin (NSC123127), were obtained from the National Cancer Institute (NCI) Developmental Therapeutics Program Chemical Repository. The FDA-approved anticancer drug set is available from the Developmental Therapeutics Program at https://dtp.cancer.gov/organization/dscb/obtaining/available plates.htm. […] The stock solutions were prepared in dimethyl sulfoxide (DMSO, Sigma-Aldrich, St. Louis, MO, cat. D2650), except for the platinum complexes which were prepared in saline (Quality Biological, Gaithersburg, MD, cat. 114-055-101), at 800-fold the tested concentration and stored at -70 degrees C prior to their use. All drugs and investigational agents were tested over a range starting from a high concentration at or near the clinical Cmax and decreasing in half-log increments. If the clinical Cmax for an agent had not been determined, the highest concentration tested was 10 microM.
Cell Culture. All cells were maintained in an incubator at 37 degrees C and 5% CO2 with 95% humidity. The PDC lines were cultured according to standard operating procedures established by the NCI PDMR. Briefly, all PDCs were thawed and cultured in Matrigel-coated flasks prepared with a working solution of 1X Ham's F-12 nutrient mix, without supplementation (Invitrogen, Waltham, MA, cat. 11765054), 100 U/mL penicillin-streptomycin (Invitrogen, cat. 15140122), and 2.5% Matrigel (Corning Inc., Corning, NY, cat. 354248) for the first three passages. The 947758-054-R-J2-PDC line was cultured in 6B/Colon 1A media, which includes advanced DMEM/F-12 (Thermo Fisher Scientific, cat. 12634028), 10 mM HEPES (Thermo Fisher Scientific, cat. 15630080), 1X GlutaMAX supplement (Thermo Fisher Scientific, cat. 35050061), 0.1 mg/mL primocin (InvivoGen, cat. ant-pm-2), 10% defined fetal bovine serum, heat inactivated (HyClone Laboratories Inc., cat. SH30070.03HI), 1.25 mM N-Acetyl-L-cysteine (Sigma-Aldrich, cat. A9165), 10 mM nicotinamide (Sigma-Aldrich, cat. N0636), 1X B-27 supplement (Thermo Fisher Scientific, cat. 17504044), 1X N-2 supplement (Thermo Fisher Scientific, cat. 17502048), and 10 microM Y-27632 dihydrochloride (Tocris Bioscience, cat. 1254). The 876862-298-R-J1-PDC was cultured in 6E media, which includes all 6B/Colon 1A media components plus 50% L-WRN conditioned media (ATCC, cat. CRL-3276), 50 ng/mL recombinant human EGF recombinant protein (hEGF; Thermo Fisher Scientific, cat. PHG0311), 10 ng/mL recombinant human fibroblast growth factor 10 (hGFG-10; PeproTech, cat. 100-26), 1 ng/mL recombinant human fibroblast growth factor 2 (hFGF-2; PeproTech, cat. 100-18B), and 1 µM prostaglandin E2 (PGE2; Tocris, cat. 2296). The 227483-062-R1-J1-PDC line was cultured in Panc media, containing all 6E components except hFGF-2, with the addition of 500 nM SB-431542 (Selleckchem, cat. S1067) and 10 nM gastrin (Tocris, cat. 3006). […]

[1] = second compound 0.0316 µM, first compound 0.0316 µM
[2] = second compound 0.0316 µM, first compound 0.1 µM
[3] = second compound 0.0316 µM, first compound 0.316 µM
[4] = second compound 0.0316 µM, first compound 1 µM
[5] = second compound 0.1 µM, first compound 0.0316 µM
[6] = second compound 0.1 µM, first compound 0.1 µM
[7] = second compound 0.1 µM, first compound 0.316 µM
[8] = second compound 0.1 µM, first compound 1 µM
[9] = second compound 0.316 µM, first compound 0.0316 µM
[10] = second compound 0.316 µM, first compound 0.1 µM
[11] = second compound 0.316 µM, first compound 0.316 µM
[12] = second compound 0.316 µM, first compound 1 µM
[13] = second compound 1 µM, first compound 0.0316 µM
[14] = second compound 1 µM, first compound 0.1 µM
[15] = second compound 1 µM, first compound 0.316 µM
[16] = second compound 1 µM, first compound 1 µM
[17] = second compound 3.16 µM, first compound 0.0316 µM
[18] = second compound 3.16 µM, first compound 0.1 µM
[19] = second compound 3.16 µM, first compound 0.316 µM
[20] = second compound 3.16 µM, first compound 1 µM
[21] = second compound 10 µM, first compound 0.0316 µM
[22] = second compound 10 µM, first compound 0.1 µM
[23] = second compound 10 µM, first compound 0.316 µM
[24] = second compound 10 µM, first compound 1 µM
[25] = second compound 0.0316 µM, first compound 0.00316 µM
[26] = second compound 0.0316 µM, first compound 0.01 µM
[27] = second compound 0.1 µM, first compound 0.00316 µM
[28] = second compound 0.1 µM, first compound 0.01 µM
[29] = second compound 0.316 µM, first compound 0.00316 µM
[30] = second compound 0.316 µM, first compound 0.01 µM
[31] = second compound 1 µM, first compound 0.00316 µM
[32] = second compound 1 µM, first compound 0.01 µM
[33] = second compound 3.16 µM, first compound 0.00316 µM
[34] = second compound 3.16 µM, first compound 0.01 µM
[35] = second compound 10 µM, first compound 0.00316 µM
[36] = second compound 10 µM, first compound 0.01 µM
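Also: spheroids exposed to the agents for 7 days before readout.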

## CC(Nc1ccc2c(c1)OCCn1cc(N3C(=O)OCC3C(F)F)nc1-2)C(N)=O (stereo unspecified) + CN1CCN(c2cc(C(=O)Nc3cc4cc(-c5cnn(C)c5)ccc4cn3)ccn2)CC1
Second compound 0.0316 µM
  IC50: 2730 nM
Second compound 0.1 µM
  IC50: 1120 nM
Second compound 0.316 µM
  IC50: 59.6 nM
Second compound 1 µM
  IC50: < 31.6 nM
Second compound 3.16 µM
  IC50: < 31.6 nM
Second compound 10 µM
  IC50: < 31.6 nM
[1]
  viability, T/C: 110%
[2]
  viability, T/C: 105%
[3]
  viability, T/C: 84.8%
[4]
  viability, T/C: 67.8%
Second compound 0.0316 µM, first compound 3.16 µM
  viability, T/C: 48.7%
Second compound 0.0316 µM, first compound 10 µM
  viability, T/C: 25.6%
[5]
  viability, T/C: 109%
[6]
  viability, T/C: 97.6%
[7]
  viability, T/C: 91%
[8]
  viability, T/C: 50.3%
Second compound 0.1 µM, first compound 3.16 µM
  viability, T/C: 34.7%
Second compound 0.1 µM, first compound 10 µM
  viability, T/C: 27.2%
[9]
  viability, T/C: 49.6%
[10]
  viability, T/C: 55%
[11]
  viability, T/C: 28.7%
[12]
  viability, T/C: 23.4%
Second compound 0.316 µM, first compound 3.16 µM
  viability, T/C: 16.8%
Second compound 0.316 µM, first compound 10 µM
  viability, T/C: 6.83%
[13]
  viability, T/C: 0.15%
[14]
  viability, T/C: 0.13%
[15]
  viability, T/C: 1.42%
[16]
  viability, T/C: 0.08%
Second compound 1 µM, first compound 3.16 µM
  viability, T/C: 0.07%
Second compound 1 µM, first compound 10 µM
  viability, T/C: 1.09%
[17]
  viability, T/C: 0.09%
[18]
  viability, T/C: 0.57%
[19]
  viability, T/C: 0.75%
[20]
  viability, T/C: 0.83%
Second compound 3.16 µM, first compound 3.16 µM
  viability, T/C: 1.91%
Second compound 3.16 µM, first compound 10 µM
  viability, T/C: 1.61%
[21]
  viability, T/C: 0.09%
[22]
  viability, T/C: 0.13%
[23]
  viability, T/C: 1.44%
[24]
  viability, T/C: 0.18%
Second compound 10 µM, first compound 3.16 µM
  viability, T/C: 1.19%
Second compound 10 µM, first compound 10 µM
  viability, T/C: 1.25%

## CCN1CCN(Cc2ccc(Nc3ncc(F)c(-c4cc(F)c5nc(C)n(C(C)C)c5c4)n3)nc2)CC1 + CN1CCN(c2cc(C(=O)Nc3cc4cc(-c5cnn(C)c5)ccc4cn3)ccn2)CC1
Second compound 0.0316 µM
  IC50: > 1000 nM
Second compound 0.1 µM
  IC50: > 1000 nM
Second compound 0.316 µM
  IC50: < 3.16 nM
Second compound 1 µM
  IC50: < 3.16 nM
Second compound 3.16 µM
  IC50: < 3.16 nM
Second compound 10 µM
  IC50: < 3.16 nM
[25]
  viability, T/C: 106%
[26]
  viability, T/C: 110%
[1]
  viability, T/C: 87.4%
[2]
  viability, T/C: 83.3%
[3]
  viability, T/C: 58.9%
[4]
  viability, T/C: 57.3%
[27]
  viability, T/C: 88.1%
[28]
  viability, T/C: 91.8%
[5]
  viability, T/C: 75.8%
[6]
  viability, T/C: 66.4%
[7]
  viability, T/C: 58.8%
[8]
  viability, T/C: 60.5%
[29]
  viability, T/C: 46.5%
[30]
  viability, T/C: 37%
[9]
  viability, T/C: 34.4%
[10]
  viability, T/C: 37%
[11]
  viability, T/C: 36.4%
[12]
  viability, T/C: 38.6%
[31]
  viability, T/C: 0.13%
[32]
  viability, T/C: 0.79%
[13]
  viability, T/C: 0.77%
[14]
  viability, T/C: 0.13%
[15]
  viability, T/C: 1.01%
[16]
  viability, T/C: 0.64%
[33]
  viability, T/C: 0.1%
[34]
  viability, T/C: 1.24%
[17]
  viability, T/C: 0.11%
[18]
  viability, T/C: 0.13%
[19]
  viability, T/C: 0.16%
[20]
  viability, T/C: 0.84%
[35]
  viability, T/C: 0.13%
[36]
  viability, T/C: 0.16%
[21]
  viability, T/C: 1.7%
[22]
  viability, T/C: 0.15%
[23]
  viability, T/C: 2.3%
[24]
  viability, T/C: 2.5%

## COc1c(OCCCN2CCOCC2)ccc2c3n(c(=NC(=O)c4cnc(N)nc4)nc12)CCN3 + CN1CCN(c2cc(C(=O)Nc3cc4cc(-c5cnn(C)c5)ccc4cn3)ccn2)CC1
Second compound 0.0316 µM
  IC50: 148 nM
Second compound 0.1 µM
  IC50: 151 nM
Second compound 0.316 µM
  IC50: < 3.16 nM
Second compound 1 µM
  IC50: < 3.16 nM
Second compound 3.16 µM
  IC50: < 3.16 nM
Second compound 10 µM
  IC50: < 3.16 nM
[25]
  viability, T/C: 112%
[26]
  viability, T/C: 116%
[1]
  viability, T/C: 86.5%
[2]
  viability, T/C: 59.7%
[3]
  viability, T/C: 32.2%
[4]
  viability, T/C: 9.62%
[27]
  viability, T/C: 91.7%
[28]
  viability, T/C: 99.9%
[5]
  viability, T/C: 89.9%
[6]
  viability, T/C: 58.1%
[7]
  viability, T/C: 32.4%
[8]
  viability, T/C: 12.1%
[29]
  viability, T/C: 48.1%
[30]
  viability, T/C: 47.9%
[9]
  viability, T/C: 39.8%
[10]
  viability, T/C: 18.8%
[11]
  viability, T/C: 6.2%
[12]
  viability, T/C: 2.87%
[31]
  viability, T/C: 0.13%
[32]
  viability, T/C: 1.13%
[13]
  viability, T/C: 0.12%
[14]
  viability, T/C: 0.08%
[15]
  viability, T/C: 1.11%
[16]
  viability, T/C: 0.77%
[33]
  viability, T/C: 0.42%
[34]
  viability, T/C: 0.12%
[17]
  viability, T/C: 0.38%
[18]
  viability, T/C: 0.15%
[19]
  viability, T/C: 1.16%
[20]
  viability, T/C: 1.38%
[35]
  viability, T/C: 0.08%
[36]
  viability, T/C: 0.15%
[21]
  viability, T/C: 1.41%
[22]
  viability, T/C: 0.15%
[23]
  viability, T/C: 3.12%
[24]
  viability, T/C: 2.42%
